Patent US9302999B2, “Substituted triazoles as herbicides” (E. I. DU PONT DE NEMOURS AND COMPANY, priority 2012, dated 2016)

Experiments:
Type in all cases: in vivo
[1] = test system: ducksalad (Heteranthera limosa); assay: Test C flooded paddy test: ducksalad; settings: scale 0 to 100 (0 no effect, 100 complete control)
In short: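 Greenhouse plants treated at the 2-leaf stage by dosing the flood water (3 cm depth, maintained) were compared with controls after 13 to 15 days and rated 0 to 100, where 100 means complete control; a dash marks no test result.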

[2] = test system: canarygrass (Phalaris minor); assay: Test D pre-/postemergence: canarygrass
Excerpt: Seeds of plant species selected from bluegrass (annual bluegrass, Poa annua), blackgrass (Alopecurus myosuroides), canarygrass (Phalaris minor), chickweed (common chickweed, Stellaria media), galium (catchweed bedstraw, Galium aparine), bromegrass, downy (downy bromegrass, Bromus tectorum), field poppy (Papaver rhoeas), field violet (Viola arvensis), foxtail, green (green foxtail, Setaria viridis), deadnettle (henbit deadnettle, Lamium amplexicaule), ryegrass, Italian (Italian ryegrass, Lolium multiflorum), kochia (Kochia scoparia), lambsquarters (Chenopodium album), oilseed rape (Brassica napus), pigweed (Amaranthus retroflexus), Russian thistle (Salsola iberica), chamomile (scentless chamomile, Matricaria inodora), speedwell (bird's-eye speedwell, Veronica persica), barley, spring (spring barley, Hordeum vulgare), wheat, spring (spring wheat, Triticum aestivum), buckwheat, wild (wild buckwheat, Polygonum convolvulus), mustard, wild (wild mustard, Sinapis arvensis), oat, wild (wild oat, Avena fatua), radish, wild (wild radish, Raphanus raphanistrum), windgrass (Apera spica-venti), barley, winter (winter barley, Hordeum vulgare), and wheat, winter (winter wheat, Triticum aestivum) were planted into a silt loam soil and treated preemergence with test chemicals formulated in a non-phytotoxic solvent mixture which included a surfactant. At the same time, these same crop and weed species were planted in pots containing the planting medium comprising spaghnum peat moss, vermiculite, wetting agent and starter nutrients and treated with postemergence applications of the test chemicals formulated in the same manner. Plants ranged in height from 2 to 18 cm (1- to 4-leaf stage).
Treated plants and controls were maintained in a controlled growth environment for 14 to 21 days after which time all species were compared to controls and visually evaluated. Plant response ratings, summarized in Table D, are based on a scale of 0 to 100 where 0 is no effect and 100 is complete control. A dash (-) response means no test result.

[3] = test system: field poppy (Papaver rhoeas); assay: Test D pre-/postemergence: field poppy; settings: Postemergence; for Plant response rating, Field Poppy: 16 g ai/ha, scale 0 to 100
In short: (§1)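 Applied as a non-phytotoxic solvent formulation with surfactant, compounds were tested preemergence in silt loam and postemergence on seedlings 2 to 18 cm high in peat-vermiculite medium. Evaluation was visual, 0 meaning no effect and 100 complete control, at 14 to 21 days.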

[4] = test system: deadnettle (henbit deadnettle, Lamium amplexicaule); assay: Test D pre-/postemergence: deadnettle
In short: as §1

[5] = test system: lambsquarters (Chenopodium album); assay: Test D pre-/postemergence: lambsquarters
In short: as §1

[6] = Postemergence, 31 g ai/ha, scale 0 to 100 (0 no effect, 100 complete control)
[7] = Postemergence, 62 g ai/ha, scale 0 to 100 (0 no effect, 100 complete control)
[8] = Postemergence, 125 g ai/ha, scale 0 to 100, 0 no effect, 100 complete control
[9] = Postemergence, 250 g ai/ha, scale 0 to 100 (0 no effect, 100 complete control)
[10] = Postemergence, 16 g ai/ha, scale 0 to 100
[11] = Preemergence, 31 g ai/ha, scale 0 to 100, 0 no effect, 100 complete control
[12] = Preemergence, 62 g ai/ha, scale 0 to 100
[13] = Preemergence, 125 g ai/ha, scale 0 to 100
[14] = Preemergence, 250 g ai/ha, scale 0 to 100
[15] = 31 g ai/ha, scale 0 to 100 (0 no effect, 100 complete control)
[16] = 62 g ai/ha, scale 0 to 100 (0 no effect, 100 complete control)
[17] = 125 g ai/ha, scale 0 to 100, 0 no effect, 100 complete control
[18] = 250 g ai/ha, scale 0 to 100 (0 no effect, 100 complete control)
[19] = Flood (flooded paddy test), 125 g ai/ha, visual rating after 13 to 15 days
[20] = Flood (flooded paddy test), 250 g ai/ha, visual rating after 13 to 15 days

Compound | Plant response rating: Canarygrass [2, 6] | Plant response rating: Canarygrass [2, 7] | Plant response rating: Canarygrass [2, 8] | Plant response rating: Canarygrass [2, 9] | Plant response rating, Canarygrass [2, 10] | Plant response rating: Field Poppy [3, 15] | Plant response rating: Field Poppy [3, 16] | Plant response rating: Field Poppy [3, 17] | Plant response rating: Field Poppy [3, 18] | Plant response rating, Field Poppy [3] | Plant response rating: Deadnettle [4, 6] | Plant response rating: Deadnettle [4, 7] | Plant response rating: Deadnettle [4, 8] | Plant response rating: Deadnettle [4, 9] | Plant response rating, Deadnettle [4, 10] | Plant response rating: Lambsquarters [5, 6] | Plant response rating: Lambsquarters [5, 7] | Plant response rating: Lambsquarters [5, 8] | Plant response rating: Lambsquarters [5, 9] | Plant response rating, Lambsquarters [5, 10] | other results
COc1nn(-c2ccc(C(F)(F)F)cc2)nc1Cc1ccnc(C(F)(F)F)c1 [Compound 15, 4-[[5-methoxy-2-[4-(trifluoromethyl)phenyl]-2H-1,2,3-triazol-4-yl]methyl]-2-(trifluoromethyl)pyridine] | 35 | 40 | 50 | 80 | 25 | 100 | 100 | 100 | 100 | 100 | 75 | 98 | 100 | 100 | 50 | 100 | 100 | 100 | 100 | 50 | pest or weed control at 62 g/ha ([1]; Heteranthera limosa, Flood (flooded paddy test), 62 g ai/ha, visual rating after 13 to 15 days, read-out: Plant response rating, Ducksalad): 40%; pest or weed control at 250 g/ha ([1]; Heteranthera limosa, Flood (flooded paddy test), 250 g ai/ha, visual rating after 13 to 15 days, read-out: Plant response rating, Ducksalad): 60%; Plant response rating, Canarygrass [2, 11]: 25; Plant response rating, Canarygrass [2, 12]: 80; Plant response rating, Canarygrass [2, 13]: 90; Plant response rating, Canarygrass [2, 14]: 100; Plant response rating, Deadnettle [4, 11]: 10; Plant response rating, Deadnettle [4, 12]: 40; Plant response rating, Deadnettle [4, 13]: 95; Plant response rating, Deadnettle [4, 14]: 100; Plant response rating, Lambsquarters [5, 11]: 0; Plant response rating, Lambsquarters [5, 12]: 90; Plant response rating, Lambsquarters [5, 13]: 100; Plant response rating, Lambsquarters [5, 14]: 100
Cc1nn(-c2ccc(C(F)(F)F)cn2)nc1Oc1ccnc(C(F)(F)F)c1 [Compound 23] | 15 | 20 | 25 | 30 | 10 | 70 | 90 | 100 | 100 | 75 | 30 | 50 | 60 | 90 | 20 | 30 | 80 | 100 | 100 | 30 | Plant response rating, Ducksalad ([1]; Flood (flooded paddy test), 62 g ai/ha, visual rating after 13 to 15 days): 60; Plant response rating, Ducksalad [1, 19]: 60; Plant response rating, Ducksalad [1, 20]: 85; Plant response rating, Ducksalad ([1]; Flood, 31 g ai/ha): 50
Cc1nn(-c2ccc(C(F)(F)F)cn2)nc1Cc1cccc(C(F)(F)F)c1 [Compound 106] | 5 | 10 | 20 | 30 | 5 | 100 | 100 | 100 | 100 | 100 | 30 | 40 | 60 | 80 | 20 | 30 | 30 | 50 | 90 | 20 | Plant response rating, Ducksalad [1, 19]: 70; Plant response rating, Ducksalad [1, 20]: 70; Plant response rating, Ducksalad ([1]; Flood, 31 g ai/ha): 0; Plant response rating, Ducksalad ([1]; Flood, 62 g ai/ha): 60; Plant response rating, Canarygrass [2, 11]: 0; Plant response rating, Canarygrass [2, 12]: 0; Plant response rating, Canarygrass [2, 13]: 0; Plant response rating, Canarygrass [2, 14]: 0; Plant response rating, Deadnettle [4, 11]: 0; Plant response rating, Deadnettle [4, 12]: 0; Plant response rating, Deadnettle [4, 13]: 0; Plant response rating, Deadnettle [4, 14]: 0; Plant response rating, Lambsquarters [5, 11]: 40; Plant response rating, Lambsquarters [5, 12]: 40; Plant response rating, Lambsquarters [5, 13]: 40; Plant response rating, Lambsquarters [5, 14]: 40
